Test results: patent US11319326B2, “Tricyclic fused derivatives of 1-(cyclo)alkyl pyrtdin-2-one useful for the treatment of cancer” (JUBILANT BIOSYS LIMITED, priority 2015, dated 2022)

Test system: MV4-11 cells
Assay: Anticancer activity: Alamar Blue 3-day proliferation assay
Format: cell-based
Conditions: AML cell line MV4-11, 72 h, read-out: MV4-11 EC50_μM
Procedure: Anticancer Activity: Alamar Blue Assay
The impact of the compounds on cancer cell proliferation was determined using the AML cell line MV4-11 (ATCC) in a 3-day proliferation assay. MV4-11 cells were maintained in RPMI supplemented with 10% FBS at 37° C., 5% CO2. For compound testing, MV4-11 cells were plated in a 96-well black bottom plate at a density of 15,000 cells/well in 100 μL culture media and incubated at 37° C. overnight. Compound dilution series were prepared in DMSO via a 3-fold serial dilution from 100 μM to 0.005 μM. The DMSO dilution series were then diluted with media, with the final compound concentrations added to the wells ranging from 10 μM to 0.0005 μM. […] The fluorescent readings from the Alamar Blue assay were normalized to the DMSO treated cells and analyzed using the GraphPad Prism software with sigmoidal curve fitting to obtain EC50.

## CCNC(=O)CC1N=C(c2c(F)cccc2F)c2cc(OC)ccc2-c2cn(C)c(=O)cc21 (racemic) [Compound 38, ±2-(7-(2,6-difluorophenyl)-9-methoxy-2-methyl-3-oxo-3,5-dihydro-2H-benzo[c]pyrido[3,4-e]azepin-5-yl)-N-ethylacetamide]
  EC50: 13 nM
